Tests used:
[1] = system: human platelets in plasma; assay: Platelet aggregation in platelet-rich plasma (light transmission aggregometry); assay type: cell-based; conditions: 20 min, n=5, mean±S.E.M.
Method: With approval from the regional ethical board Örebro-Uppsala county (Dnr 2015/543) blood was obtained from healthy volunteers, who denied to have taken any medication two weeks prior to donation, by venipuncture and drawn into 10 ml syringes preloaded by the supplier with trisodium citrate solution (Sarstedt, Nümbrecht, Germany, Order number: 02.1067.001) The blood was and centrifuged at 220 g for 20 min. The PRP thus obtained was transferred into fresh 15 ml polypropylene tubes, and the remaining blood was centrifuged at 2200 g for 20 min to separate the PPP from remaining blood cells.
Measurements were performed at 37° C. using Chrono-Log lumi-aggregometer (Model 700, Chrono-log Corporation, Havertown, Pa., USA) with stirring at 900 rev./min using a final volume of 0.3 ml platelet suspension. Aggregation is expressed as percentage light transmission compared with PPP alone (=100%).
Platelets were preincubated with vehicle or AR-C66096 as indicated for 5 min followed by the stimulation with 1 μg/ml collagen, 10 μM SFLLRN, 30 μg/ml C34, 10 μg/ml fucoidan, or 30 μg/ml dextran sulfate (DxS) (FIG. 4A).
Platelets were preincubated with vehicle or ICI 192,506 as indicated for 5 min followed by the stimulation with 1 μg/ml collagen, 10 μM SFLLRN, 30 μg/ml C34, 10 μg/ml fucoidan, or 30 μg/ml dextran sulfate (DxS) (FIG. 4B).
Platelets were preincubated with vehicle or AR-C66096 and ICI 192,506 as indicated for 5 min followed by the stimulation with 1 μg/ml collagen, 10 μM SFLLRN, 30 μg/ml C34, 10 μg/ml fucoidan, or 30 μg/ml dextran sulfate (DxS) (FIG. 4C).

[2] = system: human platelets in plasma; assay: as above; assay type: cell-based; conditions: in the presence of both TPα and P2Y12 antagonists (dual inhibition; DAPT), FIG. 3
[3] = system: washed (isolated) human platelets; conditions: from Kauskot et al. [4]; cited from earlier work
[4] = FIG. 4A, in the presence of P2Y12 receptor antagonist AR-C66096 (5 min preincubation), same agonist concentrations
[5] = FIG. 4A, vehicle preincubation (no antagonist), 1 μg/ml collagen, 10 μM SFLLRN, 30 μg/ml C34, 10 μg/ml fucoidan, 30 μg/ml DxS
[6] = FIG. 4B, in the presence of TPα receptor antagonist ICI 192,605 (5 min preincubation), same agonist concentrations
[7] = FIG. 4B, vehicle preincubation (no antagonist), same agonist concentrations
[8] = FIG. 4C, dual inhibition with AR-C66096 and ICI 192,605 (5 min preincubation), same agonist concentrations
[9] = FIG. 4C, vehicle preincubation (no antagonist), same agonist concentrations

Molecule: dextran sulfate [DxS]
- extent of platelet aggregation (percentage light transmission compared with PPP) [1, 4]: 23±6%
- extent of platelet aggregation (percentage light transmission compared with PPP) [1, 5]: 84±5%
- extent of platelet aggregation (percentage light transmission compared with PPP) [1, 6]: 39±7%
- extent of platelet aggregation (percentage light transmission compared with PPP) [1, 7]: 88±6%
- extent of platelet aggregation (percentage light transmission compared with PPP) [1, 8]: 37±6%
- extent of platelet aggregation (percentage light transmission compared with PPP) [1, 9]: 88±6%
- course of platelet aggregation under dual inhibition (reversibility of first phase) [2]: irreversible and sustained

Molecule: SFLLRN
- extent of platelet aggregation (percentage light transmission compared with PPP) [1, 4]: 5±1%
- extent of platelet aggregation (percentage light transmission compared with PPP) [1, 5]: 91±3%
- extent of platelet aggregation (percentage light transmission compared with PPP) [1, 6]: 15±6%
- extent of platelet aggregation (percentage light transmission compared with PPP) [1, 7]: 91±3%
- extent of platelet aggregation (percentage light transmission compared with PPP) [1, 8]: 3±1%
- extent of platelet aggregation (percentage light transmission compared with PPP) [1, 9]: 93±2%
- course of platelet aggregation under dual inhibition (reversibility of first phase) [2]: only the first but reversible phase

Molecule: Collagen
- extent of platelet aggregation (percentage light transmission compared with PPP) [1, 4]: 23±4%
- extent of platelet aggregation (percentage light transmission compared with PPP) [1, 5]: 85±2%
- extent of platelet aggregation (percentage light transmission compared with PPP) [1, 6]: 21±4%
- extent of platelet aggregation (percentage light transmission compared with PPP) [1, 7]: 90±3%
- extent of platelet aggregation (percentage light transmission compared with PPP) [1, 8]: 11±2%
- extent of platelet aggregation (percentage light transmission compared with PPP) [1, 9]: 86±2%
- course of platelet aggregation under dual inhibition (reversibility of first phase) [2]: only the first but reversible phase

B1: PEAR1-EC: PEAR1 extracellular domain protein (Kauskot et al.) (protein, UniProt Q5VY43 21-755, looked up)
extracellular domain: LNPSDPNTCSFWESFTTTTKESHSRPFSLLPSEPCERPWEGPHTCPQPTVVYRTVYRQVVKTDHRQRLQCCHGFYESRGFCVPLCAQECVHGRCVAPNQCQCVPGWRGDDCSSECAPGMWGPQCDKPCSCGNNSSCDPKSGVCSCPSGLQPPNCLQPCTPGYYGPACQFRCQCHGAPCDPQTGACFCPAERTGPSCDVSCSQGTSGFFCPSTHSCQNGGVFQTPQGSCSCPPGWMGTICSLPCPEGFHGPNCSQECRCHNGGLCDRFTGQCRCAPGYTGDRCREECPVGRFGQDCAETCDCAPDARCFPANGACLCEHGFTGDRCTDRLCPDGFYGLSCQAPCTCDREHSLSCHPMNGECSCLPGWAGLHCNESCPQDTHGPGCQEHCLCLHGGVCQATSGLCQCAPGYTGPHCASLCPPDTYGVNCSARCSCENAIACSPIDGECVCKEGWQRGNCSVPCPPGTWGFSCNASCQCAHEAVCSPQTGACTCTPGWHGAHCQLPCPKGQFGEGCASRCDCDHSDGCDPVHGRCQCQAGWMGARCHLSCPEGLWGVNCSNTCTCKNGGTCLPENGNCVCAPGFRGPSCQRSCQPGRYGKRCVPCKCANHSFCHPSNGTCYCLAGWTGPDCSQPCPPGHWGENCAQTCQCHHGGTCHPQDGSCICPLGWTGHHCLEGCPLGTFGANCSQPCQCGPGEKCHPETGACVCPPGHSGAPCRIGIQEPFTVMPTTPVAYNSL
modifications: extracellular domain
- aggregation of washed human platelets [3]: induce aggregation of washed (isolated) human platelets in a concentration-dependent fashion
